Measured values as given in publication PMC6585632 (Clinical Pharmacology in Drug Development, 2018).
Values joined by “and” are separate entries in the source; they are usually repeats but may differ in a detail not shown here. Equal entries are not always repeated. “Also recorded” adds a separate entry of the source. Where two headings read alike, the source gives them in different places. Marks after values point to notes of the source that are not given here.

Tests used:
[1] = test system: human hepatocytes; conditions: incubation with human hepatocytes; ref Clovis Oncology, Inc., data on file; cited from earlier work
[2] = incubation with human liver microsomes; ref Clovis Oncology, Inc., data on file; cited from earlier work
[3] = Steady-state pharmacokinetics in food effect cohorts; assay type: in vivo, human; conditions: for Tmax / Cmax / AUC / half-life: human, plasma, oral; for Cmax / AUC / half-life: cycle 1 day 15 steady state; for AUC: AUC0‐t
[4] = assay type: in vivo, human; conditions: for Steady state reached by: plasma trough concentrations; for Arithmetic Mean CLss/F (CV%): day 15 steady state
[5] = normal metabolizers vs hyperinducers; cited from earlier work
[6] = Safety: treatment-emergent adverse events; assay type: in vivo, human
[7] = Dose proportionality at steady state; assay type: in vivo, human; conditions: 40–500 mg QD and 240–840 mg BID
[8] = Effect of a high-fat meal on single-dose pharmacokinetics; assay type: in vivo, human; conditions: for AUC / Cmax / half-life / Tmax: human, plasma, oral; for AUC: AUC0‐24h
[9] = test system: Recombinant human cytochrome P450 (CYP) 2D6; conditions: recombinant human CYP2D6; ref Clovis Oncology, Inc., data on file; cited from earlier work
[10] = Part 3, 600 mg BID (n = 26), Grade 5
[11] = Part 3, single dose 600 mg, fasted
[12] = Part 3, single dose 600 mg, fed
[13] = Part 3, single dose 600 mg, high‐fat meal
[14] = 40 mg, arithmetic mean, Part 1, single dose 40 mg, cycle 1 day –7 fasted, n 3
[15] = 40 mg, median, Part 1, single dose 40 mg, cycle 1 day –7 fasted, n 3
[16] = 40 mg, median, Part 1, single dose 40 mg, cycle 1 day 1 fed (high-fat meal), n 3

CNCc1ccc(-c2[nH]c3cc(F)cc4c3c2CCNC4=O)cc1 [rucaparib]
metabolic turnover rate [1]: slow metabolic turnover rates
metabolic turnover rate [2]: slow metabolic turnover rates
Mean (CV%) steady‐state CLss/F ([3]; continuous 600 mg BID, Part 3, CV 45%): 44.2 L/h
Tmax ([3]; 40 mg): 4 h
Cmax ([3]; 40 mg, arithmetic mean, Part 1 food effect cohort, 40 mg QD, n 3): 129 ng/mL
Cmax ([3]; 40 mg, median, Part 1 food effect cohort, 40 mg QD, n 3): 103 ng/mL
Tmax ([3]; 300 mg): 2.47 h
AUC ([3]; 300 mg, arithmetic mean, Part 1 food effect cohort, 300 mg QD, t = 24 hours, n 3): 13300 ng·h/mL
AUC ([3]; 300 mg, median, Part 1 food effect cohort, 300 mg QD, t = 24 hours, n 3): 5220 ng·h/mL
Cmax ([3]; 300 mg, arithmetic mean, Part 1 food effect cohort, 300 mg QD, n 5): 727 ng/mL
Cmax ([3]; 300 mg, median, Part 1 food effect cohort, 300 mg QD, n 5): 444 ng/mL
half-life ([3]; 300 mg, t1/2, arithmetic mean, Part 1 food effect cohort, 300 mg QD, n 3): 20 h
half-life ([3]; 300 mg, t1/2, median, Part 1 food effect cohort, 300 mg QD, n 3): 27.5 h
Tmax ([3]; 600 mg): 1.92 h
AUC ([3]; 600 mg, arithmetic mean, Part 3, 600 mg BID, t = 10 hours, n 18): 15800 ng·h/mL
AUC ([3]; 600 mg, median, Part 3, 600 mg BID, t = 10 hours, n 18): 12900 ng·h/mL
Cmax ([3]; 600 mg, arithmetic mean, Part 3, 600 mg BID, n 18): 1940 ng/mL
Cmax ([3]; 600 mg, median, Part 3, 600 mg BID, n 18): 1480 ng/mL
steady‐state accumulation ratio (Rac_AUC0‐12h), range over cohorts ([4]; BID dosing 240‐840 mg): 1.47 to 5.44
Estimated mean CLss/F, range over cohorts ([4]; BID dosing schedule): 26.2 to 58.6 L/h
Steady state reached by ([4]; BID dosing schedule): ≤ 8 cycle 1 day
Arithmetic Mean CLss/F (CV%) ([4]; Part 1, 40 mg QD oral): 26.7 (59) L/h
Arithmetic Mean CLss/F (CV%) ([4]; Part 1, 80 mg QD oral): 47.5 (23) L/h
Arithmetic Mean CLss/F (CV%) ([4]; Part 1, 160 mg QD oral, n = 3): 41.6 (29) ^b L/h
Arithmetic Mean CLss/F (CV%) ([4]; Part 1, 240 mg BID oral, n = 2): 27.3 ^a L/h
Arithmetic Mean CLss/F (CV%) ([4]; Part 1, 300 mg QD oral): 46.7 (63) L/h
Arithmetic Mean CLss/F (CV%) ([4]; Part 1, 360 mg BID oral, n = 2): 40.4 ^a L/h
Arithmetic Mean CLss/F (CV%) ([4]; Part 1, 480 mg BID oral, n = 6): 26.2 (63) ^d L/h
Arithmetic Mean CLss/F (CV%) ([4]; Part 1, 500 mg QD oral): 27.8 (35) L/h
Arithmetic Mean CLss/F (CV%) ([4]; Part 1, 600 mg BID oral, n = 4): 58.6 (123) ^g L/h
Arithmetic Mean CLss/F (CV%) ([4]; Part 1, 840 mg BID oral, n = 1): 29 ^c L/h
Rac_Cmax at steady state, range over cohorts ([4]; Part 1 BID cohorts): 2.6 to 4.9
Rac_Cmax at steady state, range over cohorts ([4]; Part 1 QD cohorts): 1.06 to 1.8
steady‐state accumulation ratio (Rac_AUC0‐24h), range over cohorts ([4]; QD dosing 40‐500 mg): 1.60 to 2.33 and 1.6 to 2.33
Estimated mean CLss/F, range over cohorts ([4]; QD dosing schedule): 26.7 to 47.5 L/h
Steady state reached by ([4]; QD dosing schedule): ≤ 8 cycle 1 day
CLss as share of the normal liver blood flow rate (1450 mL/min) ([4]; at tested oral dose levels): ≤ 24%
CLss, estimated from CLss/F and oral bioavailability of 36% ([4]; at tested oral dose levels): ≤ 350 mL/min
Cmax ([4]; human, plasma, oral, 500 mg, mean Cmax, range over cohorts, Part 1 QD cohorts 40‐500 mg, cycle 1 day 1 single dose): 114 to 949 ng/mL
Tmax ([4]; human, plasma, oral, Median tmax, range over cohorts, Part 1 QD cohorts): 1.5 to 4 h
Tmax ([4]; human, plasma, oral, cohort median tmax, range, across all doses and tablet strengths tested (Parts 1 and 3)): 1.5 to 6 h
Tmax ([4]; human, plasma, po, 360 mg, Median tmax (range), Part 1, 360 mg BID oral, day 1): 3.23 h
effect of CYP1A2 polymorphisms on pharmacokinetics [5]: no apparent effect
deaths due to disease progression ([6]; Part 1): Three
treatment‐related deaths ([6]; Part 1): No treatment‐related deaths
treatment‐related deaths ([6]; Part 3, 600 mg BID): No treatment‐related deaths
Dyspnea [6, 10]: 1 (3.8%) n (%)
Pulmonary embolism [6, 10]: 1 (3.8%) n (%)
dose proportionality of plasma exposure [7]: approximately dose proportional
effect of food (high‐fat meal) on rucaparib pharmacokinetics ([8]; Part 1, single dose of 40 mg (n = 3) or 300 mg (n = 6)): No effect of food; also recorded: Minimal food effect
median tmax delay by a high‐fat meal ([8]; Part 3, single dose 600 mg): 2.5 h
intersubject variability (CV%) of the geometric mean AUC0‐24h [8, 11]: 84.6%
intersubject variability (CV%) of the geometric mean Cmax [8, 11]: 87.5%
intersubject variability (CV%) of the geometric mean AUC0‐24h [8, 12]: 86.8%
intersubject variability (CV%) of the geometric mean Cmax [8, 12]: 82.8%
fed‐to‐fasted geometric mean ratio (90%CI) for AUC0‐24h [8, 13]: 138%
fed‐to‐fasted geometric mean ratio (90%CI) for Cmax [8, 13]: 120%
AUC ([8]; 40 mg, arithmetic mean, Part 1, single dose 40 mg, cycle 1 day 1 fed (high-fat meal), n 2): 794 ng·h/mL
AUC [8, 14]: 741 ng·h/mL
AUC ([8]; 40 mg, median, Part 1, single dose 40 mg, cycle 1 day 1 fed (high-fat meal), n 2): 794 ng·h/mL
AUC [8, 15]: 468 ng·h/mL
Cmax ([8]; 40 mg, arithmetic mean, Part 1, single dose 40 mg, cycle 1 day 1 fed (high-fat meal), n 3): 64.8 ng/mL
Cmax [8, 14]: 77.9 ng/mL
Cmax [8, 16]: 71.1 ng/mL
Cmax [8, 15]: 57.6 ng/mL
half-life ([8]; 40 mg, t1/2, arithmetic mean, Part 1, single dose 40 mg, cycle 1 day 1 fed (high-fat meal), n 3): 12.6 h
half-life ([8]; 40 mg, t1/2, arithmetic mean, Part 1, single dose 40 mg, cycle 1 day –7 fasted, n 3): 10.6 h
half-life ([8]; 40 mg, t1/2, median, Part 1, single dose 40 mg, cycle 1 day 1 fed (high-fat meal), n 3): 12.7 h
half-life ([8]; 40 mg, t1/2, median, Part 1, single dose 40 mg, cycle 1 day –7 fasted, n 3): 8.16 h
Tmax [8, 16]: 2.55 h
Tmax [8, 15]: 4 h
AUC ([8]; 300 mg, arithmetic mean, Part 1, single dose 300 mg, cycle 1 day 1 fed (high-fat meal), n 5): 6890 ng·h/mL
metabolism by recombinant enzyme [9]: able to metabolize rucaparib
